We go through eight compounds from article PMC12736270, “Application of Data-Centric Supervised Machine Learning to Predict Phenotypic Activity Against Clinically Relevant Stages of Trypanosoma cruzi” (Pharmaceutics, 2025).

The structures appear in SMILES notation. “Also recorded” adds a separate entry of the source. Where two headings read alike, the source gives them in different places.

Data set [1] relates to trypomastigotes of the K98 strain (TcI). The data set is described as follows: Trypanocidal effect on K98 strain trypomastigotes (motile parasite count). The format is cell-based, Trypanosoma cruzi. The settings on record: 24 h of incubation. Here is the method:
(§1) For the evaluation of the trypanocidal effect of selected drugs on trypomastigotes, assays were performed using culture-derived trypomastigotes of the T. cruzi Y and K98 strains. Parasites were incubated in 96-well plates at a density ranging from 5 × 10^5 to 1 × 10^6 trypomastigotes per well, in a final volume of 100 μL of MEM supplemented with 5% serum. Test compounds were previously dissolved in dimethyl sulfoxide (DMSO) and added to the wells so that the final DMSO concentration was 1%. Wells containing 1% DMSO were used as vehicle controls, and 10 μM BZN served as a positive control. In the case of the Y strain, after 24 h of incubation at 37 °C, 10 μL of resazurin solution was added to reach a final concentration of 0.01 mg/mL. Plates were incubated for approximately 4 h at 37 °C to allow fluorescence development, and readings were performed in a microplate reader with excitation and emission wavelengths of 530 nm and 590 nm, respectively. To calculate EC50 in trypomastigotes, six points were used in a concentration range of 5 to 100 μM. At least three independent assays were performed. In the case of the K98 strain, after 24 h of incubation, motile parasites were counted in a hemocytometer chamber under a light microscope. Controls consisted of RPMI-1640 supplemented with 5% FBS as well as RPMI-1640 with 0.1% DMSO. At least three independent assays were performed.

The subject of data set [2] is culture-derived trypomastigotes of the T. cruzi Y strain. The data set is described as follows: Trypanocidal effect on Y strain trypomastigotes (resazurin viability). The format is cell-based, Trypanosoma cruzi. Conditions: for Activity on Y Trypomastigotes: tested at 10 µM and 50 µM, 24 h. Here is the method:
as §1
(The colour change of resazurin is a common sign of viable cells or microbes.)

Data set [3] concerns intracellular amastigotes of the Tulahuen strain. The data set is described as follows: Intracellular amastigote assay, Tulahuen β-galactosidase strain in Vero cells. Type of data set: cell-based, Trypanosoma cruzi. Conditions: for EC50: Trypanosoma cruzi, TULAHUEN, read-out: Activity on Tul Amastigotes; for activity on intracellular amastigotes: Tulahuen strain, infected Vero cells. Here is the method: To evaluate the trypanocidal effect of the selected compounds on intracellular amastigotes, the drug screening method reported by Buckner et al. was adapted. Vero cells were seeded at 1 × 10^4 per well on a 96-well culture plate in 100 μL MEM-5% FBS. Tulahuen trypomastigotes overexpressing the E. coli β-galactosidase protein (LacZ clone C4 strain—ATCC® PRA-330™, ATCC, Manassas, VA, USA) were used to infect Vero cell monolayers (MOI: 10:1) in triplicate. After 2 h incubation at 37 °C, the culture media were removed and non-internalized parasites were eliminated by washing each well with at least 10 vol of sterile PBS 1X, after which fresh MEM-5% FBS was added. After 16–18 h, the culture medium was replaced with culture medium bearing the compounds to be tested at the desired concentration. Test compounds were prepared in DMSO, ensuring a final DMSO concentration of 1%. Cells treated with 1% DMSO were used as vehicle controls. To determine the IC50, each drug was evaluated in at least six different concentrations (usually 0.78, 1.56, 3.13, 6.25, 12.5, and 50.0 μM). The plate was further incubated for another 72 h at 37 °C, after which the culture media were removed and cells and intracellular amastigotes were lysed in 100 μL lysis buffer (25 mM Tris pH 8, 2 mM EDTA, 2 mM DTT, 1% Triton X-100, 10% glycerol in ultrapure MQ water) for 10 min at 37 °C. Then, 100 μL 2X reaction buffer (200 mM sodium phosphate, pH 8, 2 mM MgCl2, 100 mM 2-mercaptoethanol, and 1.33 mg.mL^−1 o-nitrophenyl-β-galactoside (ONPG)) was added, and the reaction was allowed to proceed until a yellow color developed (1–2 h at 37 °C). The absorbance at 420 nm was measured in a Synergy HTX multi-mode microplate reader (Biotek Instruments, Winooski, VT, USA) and normalized to the value obtained for the infection in the absence of inhibitors. IC50 for BZN was also evaluated following this method (concentrations evaluated: 0.10, 0.20, 0.39, 0.78, 1.56, 3.13, 6.25, 12.5, and 50.0 μM). Uninfected cells were included as blanks. Each compound was tested in at least two independent experiments.

The subject of data set [4] is Vero cells. The data set is described as follows: Cytotoxicity against Vero cells. Type of data set: cell-based. Conditions: for CC50 Vero Cells: Not toxic = no toxic effect observed up to 50 µM.
On the set-up of data set [5]: method as in PMID 37061109. Conditions: phase III clinical trial, non-alcoholic steatohepatitis; cited from earlier work.
The nature of data set [6]: Cytotoxicity against Vero cells. The format is cell-based. Conditions: African green monkey, Vero cells; Not toxic = no toxic effect observed up to 50 µM.
[7] abbreviates: intracellular amastigotes infecting Vero cells, 72 h.
Where [8] appears, read: * not reliable because of the simultaneous toxic effect against Vero cells.

Compound `CC#C[C@]1(O)CC[C@H]2[C@@H]3CCC4=CC(=O)CCC4=C3[C@@H](c3ccc(N(C)C)cc3)C[C@@]21C` [Mifepristone] came in with an EC50 in data set [1] (Trypanosoma cruzi) of 17.9 µM. The “reduction in parasite viability” value in data set [2] (50 µM, after 24 h of incubation, Y strain) is listed as 69.5%. The “Activity on Y Trypomastigotes” value in data set [2] is “Active”.

With `Cc1ccc(-n2nc(C(C)(C)C)cc2NC(=O)Nc2ccc(OCCN3CCOCC3)c3ccccc23)cc1` [Doramapimod], the EC50 in data set [3] (setting [7]) came to 11 µM. In data set [3], the “activity on intracellular amastigotes” value was “active”. In addition, in data set [4], the “cytotoxic effects on Vero cells” value is reported as “did not present cytotoxic activity” and the “CC50 Vero Cells” value is on record as “Not toxic”.

Regarding `CCCCOCCOc1ccc(-c2ccc3c(c2)/C=C(/C(=O)Nc2ccc([S@@+]([O-])Cc4cncn4CCC)cc2)CCCN3CC(C)C)cc1` [Cenicriviroc], in data set [3] (setting [7]), the EC50 was found to be 4.76 µM. In addition, the “activity on intracellular amastigotes” value in data set [3] is “active”. The selectivity index result in data set [3] (intracellular amastigotes versus Vero cells) is “greater than 10”. Besides, in data set [4], the “cytotoxic effects on Vero cells” value is recorded as “did not present cytotoxic activity” and the “CC50 Vero Cells” value was “Not toxic”. Besides, the “primary efficacy endpoints for fibrosis” value in data set [5] was “did not meet its primary efficacy endpoints”.

Usually CC50 stands for the concentration giving 50% cytotoxicity. Regarding `CC1(C)CCC(c2ccc(Cl)cc2)=C(CN2CCN(c3ccc(C(=O)NS(=O)(=O)c4ccc(N[C@H](CCN5CCOCC5)CSc5ccccc5)c(S(=O)(=O)C(F)(F)F)c4)cc3)CC2)C1` [Navitoclax], the EC50 in data set [3] (setting [8]) is 2.14 µM. In addition, the “cytotoxic effects on Vero cells” value in data set [4] is “cytotoxic effects”. Moreover, the CC50 in data set [6] came out at 6.03 µM.

For the compound `COCCNCc1ccc(-c2cc3nccc(Oc4ccc(NC(=S)NC(=O)Cc5ccc(F)cc5)cc4F)c3s2)nc1` [Glesatinib], the EC50 in data set [3] (setting [8]) worked out at 6.49 µM. Also, in data set [4], the “cytotoxic effects on Vero cells” value is “cytotoxic effects”. Also, in data set [6], the CC50 is around 25 µM.

As to `CC(F)(F)c1cc(F)ccc1-c1sc2cc(O)ccc2c1Oc1ccc(/C=C/C(=O)O)cc1` [LSZ-102], the EC50 in data set [3] (setting [7]) worked out at 19.4 µM. In data set [3], the “activity on intracellular amastigotes” value was “active”. In data set [4], the “cytotoxic effects on Vero cells” value is given as “did not present cytotoxic activity” and the “CC50 Vero Cells” value is “Not toxic”.

For the compound `C[C@]12CCC3=C4CCC(=O)C=C4CC[C@H]3[C@@H]1CC[C@@]2(O)CC#N` [Dienogest], in data set [1], the “EC50 on K98 Trypomastigotes” value is given as “Not active”. Moreover, the “Activity on Y Trypomastigotes” value in data set [2] is “did not exhibit detectable activity; also recorded: Not active”.

As to `C=CC[C@]1(O)CC[C@H]2[C@@H]3CCC4=CC(=O)CCC4=C3C=C[C@@]21C` [Altrenogest], the “EC50 on K98 Trypomastigotes” value in data set [1] is “Not active”. The “Activity on Y Trypomastigotes” value in data set [2] is “did not exhibit detectable activity; also recorded: Not active”.
